Experiments:
[1] = system: RKO; test: Cytotoxicity against human RKO cells after 48 hrs by MTT assay; assay type: functional, cell-based
[2] = system: DLD-1; test: Cytotoxicity against human DLD1 cells after 48 hrs by MTT assay; assay type: functional, cell-based; conditions: DLD-1, 48 h
[3] = system: BGC-823; test: Cytotoxicity against human BGC823 cells after 48 hrs by MTT assay; assay type: functional, cell-based; conditions: BGC-823, 48 h
[4] = system: HCT-116; test: Cytotoxicity against human HCT116 cells after 48 hrs by MTT assay; assay type: functional, cell-based; conditions: HCT-116, 48 h
[5] = system: HepG2; test: Cytotoxicity against human HepG2 cells after 48 hrs by MTT assay; assay type: functional, cell-based; conditions: HepG2, 48 h
[6] = system: NCI-H1650; test: Cytotoxicity against human NCI-H1650 cells after 48 hrs by MTT assay; assay type: functional, cell-based; conditions: NCI-H1650, 48 h
[7] = system: SK-OV-3; test: Cytotoxicity against human SKOV3 cells after 48 hrs by MTT assay; assay type: functional, cell-based; conditions: SK-OV-3, 48 h
[8] = Solubility of the compound in water; assay type: physicochemical

SMILES	IC50 [1]	IC50 [2]	IC50 [3]	IC50 [4]	IC50 [5]	IC50 [6]	IC50 [7]	solubility [8]
Clc1ccnc2cc(OCCCc3ccccc3)ccc12	1.42 µM	2.14 µM	2.37 µM	0.8 µM	1.78 µM	0.63 µM	3.61 µM	
CC(C)COc1ccc2c(Cl)ccnc2c1	2.68 µM	3.1 µM	3.03 µM	2.49 µM	2.25 µM	2.1 µM	3.19 µM	
Clc1ccnc2cc(OCc3ccccc3)ccc12	2.41 µM	3.27 µM	5.17 µM	2.47 µM	2.68 µM	2.72 µM	5.17 µM	
CC(C)Oc1ccc2c(Cl)ccnc2c1	2.69 µM	3.24 µM	2.63 µM	2.59 µM	2.05 µM	2.31 µM	3.06 µM	
CCCCCCOc1ccc2c(NCCN(C)C)ccnc2c1	1.12 µM	1.87 µM	1.09 µM	0.85 µM	1.37 µM	0.93 µM	1.86 µM	> 10000 µg/mL
Clc1ccnc2cc(OCCc3ccccc3)ccc12	2.56 µM	3.38 µM	2.01 µM	2.18 µM	3.31 µM	2.3 µM	2.01 µM	
CCCCCCCCOc1ccc2c(Cl)ccnc2c1	3.64 µM	4.5 µM	4.3 µM	2.82 µM	2.64 µM	3.24 µM	4.3 µM	
CN(C)CCCNc1ccnc2cc(OCc3ccc(F)cc3)ccc12	1.23 µM	2.54 µM	0.49 µM	0.74 µM	1.57 µM	0.94 µM	1.28 µM	> 10000 µg/mL
CCCCCCOc1ccc2c(Cl)ccnc2c1	2.72 µM	2.66 µM	2.38 µM	2.44 µM	2.42 µM	2.08 µM	> 10 µM	
CCOc1ccc2c(NCCN(C)C)ccnc2c1	3.65 µM	6.24 µM	2.52 µM	2.57 µM	5.68 µM	3.49 µM	4.62 µM	> 10000 µg/mL
Oc1ccnc2cc(Cl)ccc12	> 10 µM	> 10 µM	> 10 µM	> 10 µM	> 10 µM	> 10 µM	> 10 µM	
COc1ccc2c(Cl)ccnc2c1	9.65 µM	> 10 µM	> 10 µM	8.82 µM	6.07 µM	8.16 µM	> 10 µM	
C=CCOc1ccc2c(NCCCN(C)C)ccnc2c1	3.56 µM	5.18 µM	6.68 µM	2.1 µM	3.99 µM	3.12 µM	4.25 µM	> 10000 µg/mL
Fc1ccc(COc2ccc3c(Cl)ccnc3c2)cc1	1.98 µM	3.23 µM	2.78 µM	2.07 µM	3.01 µM	2.23 µM	2.78 µM	
CN(C)CCNc1ccnc2cc(OCc3ccccc3)ccc12	2.35 µM	2.14 µM	1.25 µM	1.98 µM	3.12 µM	1.62 µM	2.35 µM	> 10000 µg/mL
CCOc1ccc2c(Cl)ccnc2c1	3.87 µM	2.75 µM	3.91 µM	3.16 µM	2.66 µM	3.34 µM	3.46 µM	
CCOc1ccc2c(NCCCN(C)C)ccnc2c1	5.24 µM	8.54 µM	9.81 µM	3.38 µM	5.86 µM	3.83 µM	6.78 µM	> 10000 µg/mL
C=CCOc1ccc2c(NCCN(C)C)ccnc2c1	1.27 µM	1.53 µM	1.36 µM	0.86 µM	1.66 µM	0.93 µM	1.56 µM	> 10000 µg/mL
CCCCOc1ccc2c(Cl)ccnc2c1	3.05 µM	3.78 µM	3.61 µM	2.74 µM	2.64 µM	2.57 µM	4.13 µM	
C=CCOc1ccc2c(Cl)ccnc2c1	2.46 µM	2.89 µM	2.93 µM	2.57 µM	2.77 µM	2.28 µM	4.03 µM	
